# Experimental data from patent US11066414B2, “Cot modulators and methods of use thereof” (Gilead Sciences, Inc., priority 2015, dated 2021).
# Where two headings read alike, the source gives them in different places.
# Assays:
# TNFα = test: Cot Monocyte TNFα Cell Based Assay
# Human Cot = Human Cot (Homo sapiens (Human), UniProt P41279); test: High Throughput Cot Biochemical Assay
# [1] = Homo sapiens, Monocyte, read-out: EC50 TNF, LPS-stimulated human monocytes, TNFα
# [2] = IC50 HTRF, Cot HTRF (TR-FRET) biochemical assay
# [3] = Homo sapiens, Monocyte, read-out: EC50 TNF, LPS-stimulated human monocytes, TNFα TR-FRET
# [4] = IC50 HTRF, Cot HTRF (TR-FRET KinEASE) biochemical assay, 400 μM ATP
# Sequence of Human Cot (P41279 30-397): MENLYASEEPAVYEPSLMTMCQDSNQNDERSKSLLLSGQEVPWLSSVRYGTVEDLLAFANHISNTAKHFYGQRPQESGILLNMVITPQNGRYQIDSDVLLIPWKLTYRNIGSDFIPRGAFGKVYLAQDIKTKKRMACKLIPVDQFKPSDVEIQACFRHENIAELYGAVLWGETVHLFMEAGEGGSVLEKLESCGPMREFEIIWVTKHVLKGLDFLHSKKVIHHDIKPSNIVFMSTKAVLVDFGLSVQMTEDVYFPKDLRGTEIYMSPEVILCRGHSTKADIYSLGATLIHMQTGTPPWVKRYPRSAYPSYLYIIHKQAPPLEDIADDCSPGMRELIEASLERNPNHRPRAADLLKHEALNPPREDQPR
SMILES,EC50 (TNFα; [1]),IC50 (Human Cot; [2]),further results
"CCN1CCc2c([C@H](Nc3cc(Cl)c4ncc(C#N)c(Nc5ccc(F)c(Cl)c5)c4c3)c3cn(C4COC4)nn3)csc2C1 [Example 278, (S)-8-chloro-4-((3-chloro-4-fluorophenyl)amino)-6-(((6-ethyl-4,5,6,7-tetrahydro-thieno[2,3-c]pyridin-3-yl)(1-(oxetan-3-yl)-1H-1,2,3-triazol-4-yl)methyl)amino)quinoline-3-carbonitrile]",,,"EC50 (TNFα; Homo sapiens, Monocyte, read-out: EC50 TNF): 0.269 µM; IC50 (Human Cot): 0.003 µM"
"CC(C)(C)CNc1c(C#N)cnc2c(F)cc(N[C@H](c3cn(C4(C(N)=O)CCC4)nn3)c3cccc4ncsc34)cc12 [Example 481, (S)-1-(4-(benzo[d]thiazol-7-yl((3-cyano-8-fluoro-4-(neopentylamino)quinolin-6-yl)-amino)methyl)-1H-1,2,3-triazol-1-yl)cyclobutane-1-carboxamide]",0.391 µM,0.006 µM,
"Cc1nc(F)ccc1[C@H](Nc1cc(C#N)c2ncc(C#N)c(NCC(C)(C)C)c2c1)c1cn([C@@H]2C[C@@H]2F)nn1 [Example 622, 6-(((S)-(6-fluoro-2-methylpyridin-3-yl)(1-((1R,2S)-2-fluorocyclopropyl)-1H-1,2,3-triazol-4-yl)methyl)amino)-4-(neopentylamino)quinoline-3,8-dicarbonitrile]",0.024 µM,0.001 µM,
"N#Cc1cnc2c(Cl)cc(N[C@H](c3cn(C4COC4)nn3)c3ccc(Cl)nc3Cl)cc2c1Nc1ccc(F)c(Cl)c1 [Example 322, (S)-8-chloro-4-((3-chloro-4-fluorophenyl)amino)-6-(((2,6-dichloro-pyridin-3-yl)(1-(oxetan-3-yl)-1H-1,2,3-triazol-4-yl)methyl)amino)quinoline-3-carbonitrile]",0.369 µM,0.033 µM,
"[2H]c1c([C@@H](Nc2cc(Cl)c3ncc(C#N)c(NC([2H])([2H])C(C)(C)C)c3c2)c2ccc(F)nc2C)nnn1C1(C(F)F)CC1 [Example 973, (S)-8-chloro-6-(((1-(1-(difluoromethyl)cyclopropyl)-1H-1,2,3-triazol-4-yl-5-d)(6-fluoro-2-methylpyridin-3-yl)methyl)amino)-4-((2,2-dimethylpropyl-1,1-d2)amino)quinoline-3-carbonitrile]",,,EC50 (TNFα; [3]): 0.034 µM; IC50 (Human Cot; [4]): 0.003 µM
"Cc1nc(F)ccc1[C@H](Nc1cc(F)c2ncc(C#N)c(NCC(C)(C)C)c2c1)c1cn(C2(C)CC2)nn1 [Example 488, (S)-8-fluoro-6-(((6-fluoro-2-methylpyridin-3-yl)(1-(1-methylcyclopropyl)-1H-1,2,3-triazol-4-yl)methyl)amino)-4-(neopentyl-amino)quinoline-3-carbonitrile]",0.079 µM,0.003 µM,
"CC(C)(C)CNc1c(C#N)cnc2c(Cl)cc(N[C@H](c3cn(C4(C(F)(F)F)CC4)nn3)c3cccc4cnccc34)cc12 [Example 462, (S)-8-chloro-6-((isoquinolin-5-yl(1-(1-(trifluoromethyl)cyclopropyl)-1H-1,2,3-triazol-4-yl)methyl)amino)-4-(neopentylamino)quinoline-3-carbonitrile]",8.77 µM,0.162 µM,
"C[C@@H](CF)n1cc([C@@H](Nc2cc(C#N)c3ncc(C#N)c(NCC(C)(C)C)c3c2)c2cccc3c(=O)n(C)ccc23)nn1 [Example 877, 6-(((S)-(1-((S)-1-fluoropropan-2-yl)-1H-1,2,3-triazol-4-yl)(2-methyl-1-oxo-1,2-dihydroisoquinolin-5-yl)methyl)amino)-4-(neopentylamino)quinoline-3,8-dicarbonitrile]",,,EC50 (TNFα; [3]): 0.034 µM; IC50 (Human Cot; [4]): 0.002 µM
"N#Cc1cnc2c(Cl)cc(N[C@H](c3cn(C4COC4)nn3)c3csc4c3CCNC4)cc2c1Nc1ccc(F)c(Cl)c1 [Example 279, (S)-8-chloro-4-((3-chloro-4-fluorophenyl)amino)-6-(((1-(oxetan-3-yl)-1H-1,2,3-triazol-4-yl)(4,5,6,7-tetrahydrothieno[2,3-c]pyridin-3-yl)methyl)amino)quinoline-3-carbonitrile]",0.457 µM,0.003 µM,
"Cc1nc2cccc([C@H](Nc3cc(C#N)c4ncc(C#N)c(NCC(C)(C)C)c4c3)c3cn(C4CC4)nn3)c2s1 [Example 427, (S)-6-(((1-cyclopropyl-1H-1,2,3-triazol-4-yl)(2-methylbenzo[d]thiazol-7-yl)methyl)amino)-4-(neopentylamino)-quinoline-3,8-dicarbonitrile]",0.041 µM,0.002 µM,
"CC[C@@H](Nc1c(C#N)cnc2c(Cl)cc(N[C@H](c3c[nH]nn3)c3cccnc3C)cc12)c1ccccc1 [Example 220, 8-chloro-6-(((S)-(2-methylpyridin-3-yl)(1H-1,2,3-triazol-4-yl)methyl)amino)-4-(((R)-1-phenylpropyl)amino)quinoline-3-carbonitrile]",0.348 µM,0.004 µM,
"Cc1nc(F)ccc1[C@H](Nc1cc(C#N)c2ncc(C#N)c(NCC(C)(C)C)c2c1)c1cn(C2(C)COC2)nn1 [Example 852, (S)-6-(((6-fluoro-2-methylpyridin-3-yl)(1-(3-methyloxetan-3-yl)-1H-1,2,3-triazol-4-yl)methyl)amino)-4-(neopentylamino)quinoline-3,8-dicarbonitrile]",,,EC50 (TNFα; [3]): 0.058 µM; IC50 (Human Cot; [4]): 0.002 µM
"N#Cc1cnc2c(Cl)cc(N[C@@H](c3cocn3)c3c[nH]nn3)cc2c1N[C@@H](CO)c1ccccc1 [Example 214, 8-chloro-4-(((R)-2-hydroxy-1-phenylethyl)amino)-6-(((S)-o)(azol-4-yl(1H-1,2,3-triazol-4-yl)methyl)amino)quinoline-3-carbonitrile]",,,"EC50 (TNFα; read-out: EC50 TNF, LPS-stimulated human monocytes, TNFα): > 10 µM; IC50 (Human Cot; read-out: IC50 HTRF, Cot HTRF (TR-FRET) biochemical assay): > 10 µM"
"CC(C)(C)CNc1c(C#N)cnc2c(C#N)cc(N[C@H](c3cn(C4(C(F)(F)F)CC4)nn3)c3ccc(C#N)c4ncccc34)cc12 [Example 710, (S)-6-(((8-cyanoquinolin-5-yl)(1-(1-(trifluoromethyl)cyclopropyl)-1H-1,2,3-triazol-4-yl)methyl)amino)-4-(neopentylamino)quinoline-3,8-dicarbonitrile]",0.148 µM,0.005 µM,
"CC[C@@H](Nc1c(C#N)cnc2c(Cl)cc(N[C@H](c3cn(C4(C(F)F)CC4)nn3)c3ccc(F)nc3C)cc12)c1ccccc1 [Example 723, 8-chloro-6-(((S)-(1-(1-(difluoromethyl)cyclopropyl)-1H-1,2,3-triazol-4-yl)(6-fluoro-2-methylpyridin-3-yl)methyl)amino)-4-(((R)-1-phenyl-propyl)amino)quinoline-3-carbonitrile]",0.084 µM,0.004 µM,
"CC(C)(C)CNc1c(C#N)cnc2c(Cl)cc(N[C@H](c3cn(C4(C(F)F)CC4)nn3)c3cccc4ccncc34)cc12 [Example 537, (S)-8-chloro-6-(((1-(1-(difluoromethyl)-cyclopropyl)-1H-1,2,3-triazol-4-yl)(isoquinolin-8-yl)methyl)amino)-4-(neopentylamino)quinoline-3-carbonitrile]",0.075 µM,0.002 µM,
"N#Cc1cnc2c(Cl)cc(N[C@@H](c3ccc(F)nc3)c3c[nH]nn3)cc2c1Nc1cnc(F)c(F)c1 [Example 166, (S)-8-chloro-4-((5,6-difluoropyridin-3-yl)amino)-6-(((6-fluoropyridin-3-yl)(1H-1,2,3-triazol-4-yl)methyl)amino)quinoline-3-carbonitrile]",1.43 µM,0.006 µM,
"CCN1CCC(n2cc([C@@H](Nc3cc(Cl)c4ncc(C#N)c(Nc5ccc(F)c(Cl)c5)c4c3)c3cc(Cl)cs3)nn2)CC1 [Example 381, (R)-8-chloro-4-((3-chloro-4-fluoro-phenyl)amino)-6-(((4-chlorothiophen-2-yl)(1-(1-ethylpiperidin-4-yl)-1H-1,2,3-triazol-4-yl)methyl)amino)-quinoline-3-carbonitrile]",0.303 µM,0.007 µM,
"Cc1nc(F)ccc1[C@H](Nc1cc(Cl)c2ncc(C#N)c(NCC(C)(C)C)c2c1Br)c1nnn(C2(C(F)F)CC2)c1F [Example 975, (S)-5-bromo-8-chloro-6-(((1-(1-(difluoromethyl)cyclopropyl)-5-fluoro-1H-1,2,3-triazol-4-yl)(6-fluoro-2-methylpyridin-3-yl)methyl)amino)-4-(neopentylamino)quinoline-3-carbonitrile]",,,EC50 (TNFα; [3]): 1 µM; IC50 (Human Cot; [4]): 1.23 µM
"Cc1nc(F)ccc1[C@H](Nc1cc(C#N)c2ncc(C#N)c(NCC(C)(C)C)c2c1)c1cn(C2(CF)CC2)nn1 [Example 503, (S)-6-(((6-fluoro-2-methylpyridin-3-yl)(1-(1-(fluoromethyl)cyclopropyl)-1H-1,2,3-triazol-4-yl)methyl)amino)-4-(neopentylamino)quinoline-3,8-dicarbonitrile]",0.045 µM,0.002 µM,
"CC(C)(C)CNc1c(C#N)cnc2c(Cl)cc(N[C@H](c3cn(C4(C(F)(F)F)CC4)nn3)c3csc4cnccc34)cc12 [Example 741, (S)-8-chloro-4-(neopentylamino)-6-((thieno[2,3-c]pyridin-3-yl(1-(1-(trifluoromethyl)cyclopropyl)-1H-1,2,3-triazol-4-yl)methyl)amino)quinoline-3-carbonitrile]",0.12 µM,0.006 µM,
"Cc1ccnc2cccc([C@H](Nc3cc(Cl)c4ncc(C#N)c(NCC(C)(C)C)c4c3)c3cn(C4(C(F)(F)F)CC4)nn3)c12 [Example 660, (S)-8-chloro-6-(((4-methylquinolin-5-yl)(1-(1-(trifluoromethyl)cyclopropyl)-1H-1,2,3-triazol-4-yl)methyl)amino)-4-(neopentylamino)quinoline-3-carbonitrile]",0.839 µM,0.043 µM,
"CC(C)(C)CNc1c(C#N)cnc2c(Cl)cc(N[C@H](c3cn(C4CC4)nn3)c3cccc4cnccc34)cc12 [Example 443, (S)-8-chloro-6-(((1-cyclopropyl-1H-1,2,3-triazol-4-yl)(isoquinolin-5-yl)methyl)amino)-4-(neopentylamino)quinoline-3-carbonitrile]",0.019 µM,0.001 µM,
